US20200093801A1, “NEW METHODS FOR THE TREATMENT OF MULTIPLE SCLEROSIS” (Novartis AG, priority 2017, published 2020)

What was measured:
[1] = Quantitative determination of BLZ945 in blood and brain (LC-MS-MS); format: in vivo; conditions: mice, p.o., FIG. 11
Description: Sample preparation and analysis was based on a modified protein precipitation procedure followed by liquid chromatographic separation coupled with mass spectrometry for detection. Cerebella were homogenized in a gentleMACS™ Dissociator (Milteniy Biotec, #130-093-235) by adding 20% CH3OH to a final concentration of 0.20 g/mL. Blood-EDTA samples were directly used for further preparation. Calibration, quality control, and recovery control samples were prepared by spiking blank blood and blank brain homogenate with known quantities of BLZ945 (between 0.02 and 62.5 μg/mL). For analyte determination, Labetalol hydrochloride (Sigma-Aldrich, # L1011) was used as generic internal standard (IS). […]
LC-MS-MS analysis: For quantitative analysis, a 1.5 μl aliquot of each sample, including calibration, quality control, and recovery control samples were injected with a cooled Waters™ Acquity Urbinary sample manager and HPLC system. […] Quantification was based on the compound/IS ratio of the extracted ion chromatograms of the selected mass transitions 399 m/z→242 m/z for BLZ945 and 329 m/z→162 m/z for Labetalol (IS). The unknown sample concentration was calculated using external calibration curves. The Lower Limit Of Quantification (LLOQ) of the method was set to 20 ng/mL for blood, and 100 ng/mL for brain samples, and the recovery from the matrix was 95±2%. […]

[2] = test system: Cuprizone-Induced Demyelination in Mice; experiment: Cuprizone-induced demyelination in mice at 20 mg/kg and 60 mg/kg, MRI; format: in vivo, Mice (C57BL/6J)
Excerpt: Studies described below were approved by the Swiss Cantonal Veterinary Authority of Basel City, Switzerland, under the license number 2711. Mice (C57BL/6J) were commercially purchased from Charles River Laboratories, Germany or obtained from Novartis Pharma AG breeding colonies (8-9 weeks old, females). All the animals were allowed to adapt for 7 days prior the start of the experiment and housed in IVC racks (max. 4 mice/XJ Type cage). The animals were given access to food and water ad libitum. Animals were treated with cuprizone for 5 weeks. Cuprizone (Bis(cyclohexanone)oxaldihydrazone, Sigma-Aldrich) was mixed into rodent food pellets (0.2% w/w) by Provimi Kliba AG, Switzerland. Therapeutic treatment of animals after cuprizone was performed for 2 weeks on normal food with 20 and 60 mg/kg of BLZ945, qd, p.o. 10 ml/kg. BLZ945 was prepared in vehicle consisting of 0.5% methylcellulose in water and 0.1% Tween-80. Before killing 3 h after last BLZ945 dosing animals were perfused transcardially by phosphate-buffered saline (PBS), brains isolated and fixed in 4% paraformaldehyde (PFA) for 48 h at 4° C.
Measurements were performed with a Biospec 70/30 spectrometer (Bruker Medical Systems, Ettlingen, Germany) operating at 7 T. The operational software of the scanner was Paravision 5.1 (Bruker). Images were acquired from anesthetized, spontaneously breathing animals using a mouse brain circularly polarized coil (Bruker, Model 1P T20063V3; internal diameter 23 mm) for radiofrequency excitation and detection; neither cardiac nor respiratory triggering was applied. Following a short period of introduction in a box, animals were maintained in anesthesia with 1.5% isoflurane (Abbott, Cham, Switzerland) in oxygen, administered via a nose cone. During MRI signal acquisitions, animals were placed in prone position in a cradle made of Plexiglas, the body temperature was kept at 37±1° C. using a heating pad, and the respiration was monitored.
A T2-weighted, two-dimensional multislice RARE (Rapid Acquisition with Relaxation Enhancement) sequence (Hennig et al., 1986) was used for determining the anatomical orientation and for evaluating signal intensities. This was followed by a two-dimensional multislice gradient-recalled FLASH (Fast Low-Angle Shot) acquisition (Haase et al., 1986) for assessment of MTR. As both sequences had the same anatomical parameters, the choice of the regions-of-interest for evaluations was performed on the RARE images and then transferred to the FLASH images. The parameters of the acquisitions were the following: (a) RARE sequence: effective echo time 80 ms, repetition time 3280 ms, RARE factor 16, 12 averages, field of view 20×18 mm^2, matrix size 213×192, pixel size 0.094×0.094 mm^2, slice thickness 0.5 mm, 15 adjacent slices. Hermite pulses of duration/bandwidth 1 ms/5400 Hz and 0.64 ms/5344 Hz were used for radiofrequency excitation and refocusing, respectively. Fat suppression was achieved by a gauss512 pulse of 2.61 ms/1051 Hz duration/bandwidth followed by a 2-ms-long gradient spoiler. The total acquisition time was of 7 min 52.3 s; (b) FLASH sequence: echo time 2.8 ms, repetition time 252.8 ms, 4 averages, field of view 20×18 mm^2, matrix size 213×192, pixel size 0.094×0.094 mm^2, slice thickness 0.5 mm, 15 adjacent slices. A hermite pulse of 0.9 ms/6000 Hz duration/bandwidth and flipangle 30° was used for radiofrequency excitation. MTR contrast was introduced by a gauss pulse of 15 ms/182.7 Hz duration/bandwidth applied with a radiofrequency peak amplitude of 7.5 μT and an irradiation offset of 2500 Hz. The acquisition was then repeated with the same parameters but without the introduction of the MTR contrast. MTR was then computed using the formula MTR=(S0−SMTR)/S0, where S0 and SMTR represent respectively the signal intensities in the FLASH acquisitions without and with the introduction of the MTR contrast. The total acquisition time for both data sets was of 6 min 31.6 seconds.

[3] = 60 mg/kg p.o. qd, therapeutic mode after 5 weeks cuprizone
[4] = 20 and 60 mg/kg p.o. qd, 2-week therapeutic treatment after 5 weeks 0.2% cuprizone, FIG. 9 legend

CNC(=O)c1cc(Oc2ccc3nc(N[C@@H]4CCCC[C@H]4O)sc3c2)ccn1 [BLZ945, 4-(2-((1R,2R)-2-hydroxycyclohexylamino)benzothiazol-6-yloxy)-N-methylpicolinamide]
Kp at 3 h ([1]; C57BL/6J, mouse, brain (cerebellum homogenate) / whole blood (EDTA), po, read-out: brain/blood ratio): 0.3 to 0.6 | Blood and brain BLZ945 levels [1]: dose-dependent | Remyelination by MRI, corpus callosum/external capsule [2, 3]: significantly enhanced remyelination | Remyelination by MRI, cortex [2, 3]: significantly enhanced remyelination | Remyelination by MRI, striatum [2, 3]: only a trend | MRI contrast in corpus callosum [2, 4]: not corpus callosum | MRI contrast in cortex [2, 4]: reduces MRI contrast | MRI contrast in striatum [2, 4]: reduces MRI contrast | Remyelination as detected by MRI ([2]; lower doses (20 and 60 mg/kg), short-term treatment for only 1 week, 5-week cuprizone model): beneficial effects on remyelination
